Source: US20240246963A1, “BIFUNCTIONAL COMPOUNDS AND PHARMACEUTICAL USES THEREOF” (RISEN (SUZHOU) PHARMA TECH CO., LTD., priority 2022, published 2024)

Tests used:
AsPc-1 cells (G12D) = experiment: Cell proliferation study (Cell Titer Glo, 72 hours), AsPc-1; assay type: cell-based; settings: Homo sapiens, ASPC1
Experimental: (§1) Aspc-1(Cobioer, CBP60546), GP2D(Cobioer, CBP60683), Mia paca2 (Cobioer, CBP60136), NCI-H358 (Cobioer, CBP60544), H727 (Cobioer, CBP60182), MKN-1 (Cobioer, CBP60486), and PSN1 (Cobioer, CBP61215) cells in exponential growth phase were seeded into a 96-well plate (Greiner, 655090) at density of 3E3/well. Cells were cultured overnight at 37° C. with 5% CO2. On the next day, cells were treated with compound at various concentrations for 72 hours in 37° C., 5% CO2 incubator (final DMSO concentration was 0.1%). After treatment, 100 μL Cell Tier Glo (Promega, G7573) were added to every well on the cell plate and incubated at room temperature (RT) for 10 minutes. Cell growth status was measured with Cell Tier Glo (Promega, G7573) following manufacturer's directions. Inhibition level was calculated according to the following formula: […]
(§2) where the “Maximum Signal” are signal of wells containing DMSO without compound; the “Minimum Signal” are signal of wells recorded at Day 0 prior to commencement of the experiment; and the “Test compound signal” are signal of wells containing compound at established concentrations.
(§3) The inhibition curve was obtained with GraphPad 7.0 software using four-parameter equation.

NCI-H727 cells (G12V) = experiment: Cell proliferation study (Cell Titer Glo, 72 hours), NCI-H727; assay type: cell-based; settings: Homo sapiens
Experimental: as §1, §2, §3

[1] = Pharmacokinetics in male ICR mice; assay type: in vivo; settings: mouse, plasma
GP2D cells = experiment: Tumor xenograft study (GP2D); assay type: in vivo, Balb/c nude mice (Nu/Nu)
Experimental: All studies were conducted in accordance with all applicable regulations and guidelines of the Institutional Animal Care and Use Committee (IACUC). Mice were maintained under pathogen-free conditions, and food and water were provided ad libitum. 6-8-week-old female, Balb/c nude mice (Nu/Nu) were injected subcutaneously with GP2D cells in 100 μL of PBS and Matrigel matrix in the right hind flank with 5×10^6 cells 50:50 cells: Matrigel. Mouse health was monitored daily, and caliper measurements began when tumors were palpable. Tumor volume measurements were determined utilizing the formula 0.5×L×W^2 in which L refers to length and W refers to width of each tumor. When tumors reached an average tumor volume of ˜200 mm^3, mice were randomized into treatment groups. The animals were divided into at least five mice per group. Mice were treated with test compound. Animals were monitored daily, and body weights and tumors were measured twice per week. “TGI” means tumor growth inhibition value.

NCI-H358 cells (G12C) = experiment: Cell proliferation study (Cell Titer Glo, 72 hours), NCI-H358; assay type: cell-based; settings: Homo sapiens
Experimental: as §1, §2, §3

Mia paca2 cells (G12C) = experiment: Cell proliferation study (Cell Titer Glo, 72 hours), Mia paca2; assay type: cell-based; settings: Homo sapiens, MIA PaCa-2
Experimental: as §1, §2, §3

GP2D cells (G12D) = experiment: Cell proliferation study (Cell Titer Glo, 72 hours), GP2D; assay type: cell-based
Experimental: as §1, §2, §3

PSN-1 cells (G12R) = experiment: Cell proliferation study (Cell Titer Glo, 72 hours), PSN-1; assay type: cell-based; settings: Homo sapiens, PSN1
Experimental: as §1, §2, §3

MKN1 cells (WT) = experiment: Cell proliferation study (Cell Titer Glo, 72 hours), MKN1; assay type: cell-based; settings: Homo sapiens, MKN-1
Experimental: as §1, §2, §3

RAS G12D protein = molecular target: T1, RAS G12D protein (Homo sapiens, UniProt P01116, G12D); experiment: Protein degradation study (western blot) in Aspc-1 cells; assay type: cell-based; settings: for percent protein degradation at 0.01 µM: 0.010 μM compound; for percent protein degradation at 0.1 µM: 0.1 μM compound; for Dmax: ASPC1, G12D in Aspc-1 cells; for DC50: half-maximum degradation concentration on G12D in Aspc-1 cells
T1 construct: host or cells: Aspc-1 (AsPC-1) cells
Experimental: Aspc-1 (Cobioer, CBP60546) cells in exponential growth phase were inoculated on a 6-well cell culture plate (Corning, 3516) at density of 1E6/well; and cells in the plate were cultured in a 37° C. incubator containing 5%-carbon dioxide. The next day, test compounds were dissolved in DMSO (Sigma, RNBF5902) for the preparation of a 10-mM concentration stock solution. The stock solution was diluted with complete medium (RPMI-1640 supplemented with 10% fetal bovine serum, 1% penicillin-streptomycin), yielding working solutions of various concentrations. The plate, after the addition of compounds, was placed in a 5% carbon dioxide incubator, and incubated at 37° C. for 24 hours (final DMSO concentration was 0.1%). The plate was then removed from the incubator, and the cells were washed twice with precooled PBS (Gibco, 14190250), followed by addition of 80 μL RIPA (CST, 9806S) lysis buffer (containing protease inhibitor (Invitrogen™, AM2696)) to each well. The adherent cells were scraped off with a cell scraper, and the cell lysate was transferred to a 1.5 mL centrifuge tube followed with a 30-minute incubation on ice. The lysate was then clarified with centrifugation at 12000 rpm for 10 min at 4° C. The supernatant was transferred into a new 1.5 mL centrifuge tube, and protein concentration was measured with BCA protein detection kit (Thermo Fisher, 23225). G12D protein level was assessed by western blot. A mixture of cell lysate (40 μL) and loading buffer (10 μL, 5×SDS (Beyotime, P0015L)) was denatured in a water-bath at 95° C. for 10 min. The denatured protein sample, at 30 μg/well, was loaded into a corresponding well of a 4-20% Bis-Tris gel (Kingsley, M00656). Protein samples were initially electrophoresed at 80 V for 30 minutes, followed by 120 V for 40 minutes, until the bromophenol blue strip ran to an appropriate position. After electrophoresis, iBlot2 (Life Technologies, IB21001) was used to transfer the separated samples onto PVDF film. The PVDF membrane was washed with double-distilled water and then blocked in TBST (Thermo Scientific, 28360) buffer containing 5% non-fat milk, for 2 hours. Blocked membrane was rinsed with tris-buffered saline tween-2 (Thermo Scientific, 28360, TBST) three times, 10 minutes each. Membrane was then incubated with 1:1000 diluted RAS Gi2D primary antibody (CST, cat #14429S) overnight at 4° C. Membrane was rinsed in a way described previously followed by 1 hour incubation of secondary antibody at room temperature. After washing the film for three times with TBST, ECL color developing solution was applied, and image was captured with Biorad Chemi Doc gel imager. The band gray value was quantified (Image Lab), and protein degradation level was calculated according to the following formulas:
Level of RAS G12D protein expression=(RAS G12D−compound/β-Actin)−compound/(RAS G12D−DMSO/β-Actin−DMSO)
Level of degradation (%)=(1−Rate of RAS G12D protein expression)×100
Symbols of −, +, ++, +++, ++++, +++++ indicate that the degradation level of Ras protein induced by test compounds was 10% or less, 10 to 30%, 30 to 60%, 60 to 70%, 70 to 75%, and greater than 75%, respectively. “NT” indicates not tested.
“NT” indicates not tested.

[2] = ASPC1, 24 h, Aspc-1 cells, 24 hours, read-out: Rate of protein degradation (%)

T1 sequence (P01116 1-188 isoform P01116-2 G12D): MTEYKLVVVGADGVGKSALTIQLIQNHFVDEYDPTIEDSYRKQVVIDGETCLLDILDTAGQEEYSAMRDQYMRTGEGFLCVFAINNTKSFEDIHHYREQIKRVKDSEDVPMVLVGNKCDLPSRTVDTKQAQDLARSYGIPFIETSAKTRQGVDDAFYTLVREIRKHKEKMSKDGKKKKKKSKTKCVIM

| IC50 (AsPc-1 cells (G12D)) [nM] | IC50 (NCI-H727 cells (G12V)) [nM] | AUC(0-t) ([1]; IV (3 mg/kg)) [ng·h/mL] | half-life ([1]; IV (3 mg/kg)) [h] | AUC(0-t) ([1]; PO (10 mg/kg)) [ng·h/mL] | half-life ([1]; PO (10 mg/kg)) [h] | IC50 (NCI-H358 cells (G12C)) [nM] | IC50 (Mia paca2 cells (G12C)) [nM] | IC50 (MKN1 cells (WT)) [nM] | percent protein degradation at 0.01 µM (RAS G12D protein; [2]) [%] | percent protein degradation at 0.1 µM (RAS G12D protein; [2]) [%] | Dmax (RAS G12D protein) [%] | DC50 (RAS G12D protein) [nM] | percent protein degradation at 0.005 µM (RAS G12D protein; ASPC1, 24 h, 0.005 μM compound, Aspc-1 cells, 24 hours, read-out: Rate of protein degradation (%)) [%] | Compound | TGI (%) (GP2D cells; IP, 10 mg/kg, q3d, 21 days) | IC50 (GP2D cells (G12D)) [nM] | IC50 (PSN-1 cells (G12R)) [nM] | TGI (%) (GP2D cells; PO, 30 mg/kg, bid, 14 days) |
| --- | --- | --- | --- | --- | --- | --- | --- | --- | --- | --- | --- | --- | --- | --- | --- | --- | --- | --- |
| 15.6 | 2.45 | 1330 | 14.3 | 103 | 6.52 | 17.6 | 3.38 | 400 | > 75 | > 75 | 78 | 1 to 10 |  | CCc1c(F)ccc2cc(O)cc(-c3ncc4c(N5CCC[C@@](C)(O)C5)nc(OCC5(CN6CCC7(CC6)CC(N6CCC(c8ccc9c(C%10CCC(=O)NC%10=O)nn(C)c9c8)CC6)C7)CC5)nc4c3F)c12 (stereo partly shown) [Compound 86] | 75.8 | 0.158 | 459 |  |
| 109 | 16.4 |  |  |  |  | 23.9 | 9.51 | 409 | 70 to 75 | 70 to 75 |  | 1 to 10 |  | CCc1c(F)ccc2cc(O)cc(-c3ncc4c(N5CCC[C@@](C)(O)C5)nc(OCC5(CN6CCC(CN7CCC(c8ccc9c(C%10CCC(=O)NC%10=O)nn(C)c9c8)CC7)CC6)CC5)nc4c3F)c12 (stereo partly shown) [Compound 101] |  | 0.214 | 463 |  |
| 7.83 | 3.61 |  |  |  |  | 17.1 |  |  |  |  | 81 | 1 to 10 | > 75 | CCc1c(F)ccc2cc(O)cc(-c3ncc4c(N5CCC[C@]6(CCO6)C5)nc(OCC5(CN6CCC7(CC6)CC(N6CCC(c8cc9c(cc8F)c(N8CCC(=O)NC8=O)nn9C)CC6)C7)CC5)nc4c3F)c12 [Compound 202] |  | 0.06 |  | 75.8 |
